{"source": "patent US11932877B2", "about": "“Human fibrolamellar hepatocellular carcinomas (hFL-HCCs)” (priority 2015, dated 2024)", "key": {"hFL-HCC cells of TU-2010 [1]": {"system": "hFL-HCC cells of TU-2010", "test": "Cell proliferation assay (WST-1) on monolayer cultures of hFL-HCC cells", "type": "cell-based, human", "experimental": "For cell proliferation assays, 3×10^4 hFL-HCC cells of TU-2010 were depleted of host mesenchymal cells by magnetic sorting of xenotransplantable tumor cell suspension and then were seeded into each well of a 96-well plate and cultured overnight with Kubota's Medium+5% FBS. […] Cell proliferation was evaluated using the Cell Proliferation Reagent WST-1 (Roche Applied Science, Mannheim, Germany). After incubation at 37° C. for 2 hours, the absorbance at 450 nm was measured."}, "hFL-HCC cells of TU-2010 [2]": {"system": "hFL-HCC cells of TU-2010", "test": "Spheroid formation assay", "type": "cell-based, human", "conditions": "spheroids in serum-free Kubota's Medium, low attachment plates", "experimental": "For secondary spheroid formation assays, the 1st spheroids were collected, subsequently dissociated with NeuroCult Chemical Dissociation Kit ([…] Technologies). Cell suspension was centrifuged at 700 rpm 10 min and resuspended with KM. After 2 weeks, the number of spheroids (100 μm>) were counted."}, "hFL-HCC": {"system": "hFL-HCC", "test": "Treatment of the hFL-HCC patient from whom TU-2010 was derived", "type": "in vivo, human", "conditions": "for clinical response of the patient's tumor: one patient, metastatic hFL-HCC; for disease course under treatment / tolerability in the patient: Paclitaxel and thalidomide given together, chosen from sensitivity studies"}}, "note": "Entries after “also recorded” stand apart in the source; their conditions may differ."}
{"molecule": "CS(=O)(=O)c1ccc(C(=O)Nc2ccc(Cl)c(-c3ccccn3)c2)c(Cl)c1", "note": "[GDC-0449, Vismodegib]", "values": [{"measurement": "suppression of survival and proliferation (growth) of hFL-HCC cells", "setting": "hFL-HCC cells of TU-2010 [1]; 4 μM and especially 20 μM, drug added for 3 days", "result": "strongly inhibited; also recorded: suppress survival and proliferation"}, {"measurement": "suppression of hFL-HCC survival and growth in spheroid cultures compared with monolayer cultures", "setting": "hFL-HCC cells of TU-2010 [2]", "result": "even more sensitive to inhibition; also recorded: far more effective"}]}
{"molecule": "COc1cccc2c1C(=O)c1c(O)c3c(c(O)c1C2=O)C[C@@](O)(C(=O)CO)C[C@@H]3O[C@H]1C[C@H](N)[C@H](O)[C@H](C)O1", "note": "[doxorubicin]", "values": [{"measurement": "clinical response of the patient's tumor", "setting": "hFL-HCC", "result": "limited or no response"}]}
{"molecule": "Nc1ccn([C@@H]2O[C@H](CO)[C@@H](O)C2(F)F)c(=O)n1", "note": "[gemcitabine]", "values": [{"measurement": "clinical response of the patient's tumor", "setting": "hFL-HCC", "result": "limited or no response"}]}
{"molecule": "N.N.[Cl][Pt][Cl]", "note": "[cisplatinum]", "values": [{"measurement": "clinical response of the patient's tumor", "setting": "hFL-HCC", "result": "limited or no response"}]}
{"molecule": "O=C(CCCCCCC(=O)NO)NO", "note": "[SBHA, suberic bis-hydroxamic acid]", "values": [{"measurement": "inhibitory effect on hFL-HCC cell survival and growth", "setting": "hFL-HCC cells of TU-2010 [1]; 10 μM and 20 μM, drug added for 3 days", "result": "strong inhibitory effects"}, {"measurement": "inhibition of hFL-HCC cell growth", "setting": "hFL-HCC cells of TU-2010 [1]; 10 μM and 50 μM", "result": "strongly inhibited"}, {"measurement": "suppression of hFL-HCC survival and growth in spheroid cultures compared with monolayer cultures", "setting": "hFL-HCC cells of TU-2010 [2]", "result": "even more sensitive to inhibition"}]}
{"molecule": "CNC(=O)c1cc(Oc2ccc(NC(=O)Nc3ccc(Cl)c(C(F)(F)F)c3)cc2)ccn1", "note": "[sorafenib]", "values": [{"measurement": "clinical response of the patient's tumor", "setting": "hFL-HCC", "result": "limited or no response"}]}
{"molecule": "O=C1CCC(N2C(=O)c3ccccc3C2=O)C(=O)N1", "note": "(centres unmarked) [thalidomide]", "values": [{"measurement": "disease course under treatment", "setting": "hFL-HCC", "result": "continued disease progression"}, {"measurement": "tolerability in the patient", "setting": "hFL-HCC", "result": "poorly tolerated"}, {"measurement": "clinical response of the patient's tumor", "setting": "hFL-HCC", "result": "limited or no response"}]}
{"molecule": "bevacizumab", "values": [{"measurement": "clinical response of the patient's tumor", "setting": "hFL-HCC", "result": "limited or no response"}]}
{"molecule": "O=C(CCCCCCC(=O)Nc1ccccc1)NO", "note": "[SAHA, suberoylanilide hydroxamic acid]", "values": [{"measurement": "suppression of hFL-HCC survival and growth in spheroid cultures compared with monolayer cultures", "setting": "hFL-HCC cells of TU-2010 [2]", "result": "even more sensitive to inhibition"}]}
{"molecule": "O=c1[nH]cc(F)c(=O)[nH]1", "note": "[5-FU]", "values": [{"measurement": "clinical response of the patient's tumor", "setting": "hFL-HCC", "result": "limited or no response"}]}
{"molecule": "CC(=O)O[C@H]1C(=O)[C@@]2(C)[C@H]([C@H](OC(=O)c3ccccc3)[C@]3(O)C[C@H](OC(=O)[C@H](O)[C@@H](NC(=O)c4ccccc4)c4ccccc4)C(C)=C1C3(C)C)[C@]1(OC(C)=O)CO[C@@H]1C[C@@H]2O", "note": "[Paclitaxel]", "values": [{"measurement": "disease course under treatment", "setting": "hFL-HCC", "result": "continued disease progression"}, {"measurement": "tolerability in the patient", "setting": "hFL-HCC", "result": "poorly tolerated"}]}
